From patent US20230265151A1, “GIP/GLP1 CO-AGONIST COMPOUNDS” (priority 2020, published 2023) come the findings set out here.

Type in all cases: cell-based
One assay concerns the target T1, hGIPR (Homo sapiens, UniProt P48546).
T1 construct: expressed in transfected cells
T1 sequence (P48546 22-466): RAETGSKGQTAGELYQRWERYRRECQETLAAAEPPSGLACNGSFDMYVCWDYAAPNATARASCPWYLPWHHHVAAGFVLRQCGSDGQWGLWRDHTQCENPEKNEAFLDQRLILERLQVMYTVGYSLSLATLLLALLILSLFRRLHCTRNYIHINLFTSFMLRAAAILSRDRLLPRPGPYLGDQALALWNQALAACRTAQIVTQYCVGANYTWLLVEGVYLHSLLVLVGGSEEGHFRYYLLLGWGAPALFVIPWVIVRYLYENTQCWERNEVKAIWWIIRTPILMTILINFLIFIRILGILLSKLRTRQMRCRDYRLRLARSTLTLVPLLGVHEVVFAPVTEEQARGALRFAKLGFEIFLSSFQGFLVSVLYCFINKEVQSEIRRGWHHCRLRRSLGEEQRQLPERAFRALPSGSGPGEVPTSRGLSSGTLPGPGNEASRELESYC
Briefly: Functional cAMP formation (HTRF) in HEK-293 clonal cells expressing hGIPR, 0.1% bovine casein, without or with 1.0% human serum albumin. A digest of the protocol: (§1)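 Readings of the HTRF 665/620 nm ratio, which falls as cAMP rises, were converted to nM cAMP using a standard curve after 30 min peptide exposure at 37° C.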

The target of another assay is T2, hGCGR (Homo sapiens, UniProt P47871).
T2 construct: expressed in transfected cells
T2 sequence (P47871 26-477): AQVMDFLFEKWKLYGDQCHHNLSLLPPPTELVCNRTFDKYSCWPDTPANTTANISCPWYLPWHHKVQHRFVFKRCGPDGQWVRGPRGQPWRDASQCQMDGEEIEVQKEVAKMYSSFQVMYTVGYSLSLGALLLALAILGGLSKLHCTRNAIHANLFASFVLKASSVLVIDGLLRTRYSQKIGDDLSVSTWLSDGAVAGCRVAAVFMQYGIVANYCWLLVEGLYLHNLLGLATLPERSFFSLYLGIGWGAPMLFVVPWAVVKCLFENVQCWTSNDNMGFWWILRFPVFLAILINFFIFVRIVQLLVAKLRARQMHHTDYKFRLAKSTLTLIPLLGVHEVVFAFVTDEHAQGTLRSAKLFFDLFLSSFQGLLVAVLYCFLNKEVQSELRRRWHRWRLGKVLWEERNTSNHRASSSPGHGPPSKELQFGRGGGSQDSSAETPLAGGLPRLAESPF
The experiment in a line: Functional cAMP formation (HTRF) in HEK-293 clonal cells expressing hGCGR, 0.1% bovine casein, without or with 1.0% human serum albumin. A digest of the protocol: as §1

A further assay deals with hGLP-1R (Homo sapiens, UniProt P43220). Briefly: Functional cAMP formation (HTRF) in HEK-293 clonal cells expressing hGLP-1R, 0.1% bovine casein, without or with 1.0% human serum albumin. Details: expressed in transfected cells. The conditions noted are these: 37° C.; for Emax: read-out: hGLP-1R Emax, % ± SEM; for EC50: cAMP, 0.1% bovine casein (no human serum albumin), geometric mean. The gist of the method:
as §1

The mark [1] stands for this setting: HEK293, cAMP, 37° C., 0.1% bovine casein and 1.0% human serum albumin, percent of maximal response to GIP(1-42)NH2, read-out: hGIPR Emax, % ± SEM.
Setting [2] is: cAMP, 37° C., 0.1% bovine casein (no human serum albumin), geometric mean, read-out: hGIPR EC50, nM (SEM, n).
[3] abbreviates: cAMP, 37° C., 0.1% bovine casein (no human serum albumin), geometric mean, read-out: hGCGR EC50, nM (SEM, n).
[4] abbreviates: cAMP, 37° C., 0.1% bovine casein and 1.0% human serum albumin, geometric mean (SEM, n), read-out: hGCGR EC50, nM (SEM, n).
Setting [5] is: HEK293, cAMP, 0.1% bovine casein and 1.0% human serum albumin, percent of maximal response to GLP-1(7-36)NH2.
The mark [6] stands for this setting: read-out: hGLP-1R EC50, nM (SEM, n).

Where two headings read alike, the source gives them in different places.

Chain of hGLP-1R (P43220 24-463): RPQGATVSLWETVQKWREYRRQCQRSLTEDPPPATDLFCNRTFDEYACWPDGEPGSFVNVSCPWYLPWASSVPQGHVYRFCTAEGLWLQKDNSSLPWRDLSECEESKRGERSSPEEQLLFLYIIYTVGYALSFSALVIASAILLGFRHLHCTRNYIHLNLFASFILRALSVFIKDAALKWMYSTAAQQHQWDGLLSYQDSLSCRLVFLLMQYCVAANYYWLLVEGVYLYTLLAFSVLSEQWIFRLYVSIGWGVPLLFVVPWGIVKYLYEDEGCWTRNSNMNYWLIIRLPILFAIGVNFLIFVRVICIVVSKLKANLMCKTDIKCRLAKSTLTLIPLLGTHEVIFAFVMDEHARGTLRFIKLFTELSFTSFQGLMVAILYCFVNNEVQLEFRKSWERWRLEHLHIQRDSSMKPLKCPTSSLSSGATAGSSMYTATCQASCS

On to `CC[C@H](C)[C@H](NC(=O)[C@H](CC(C)C)NC(=O)[C@](C)(Cc1ccc(O)cc1)NC(=O)[C@@H](CCC(=O)O)NC(=O)[C@@H](NC(=O)[C@H](Cc1ccccc1)NC(=O)[C@H](CCCCNC(=O)COCCOCCNC(=O)COCCOCCNC(=O)CCCCCCCCCCCCC(=O)O)NC(=O)C(C)(C)NC(=O)[C@H](CCC(N)=O)NC(=O)[C@H](C)NC(=O)[C@H](CCCCNC(=O)COCCOCCNC(=O)COCCOCCNC(=O)CCCCCCCCCCCCC(=O)O)NC(=O)[C@H](CCCN)NC(=O)[C@H](CC(=O)O)NC(=O)[C@H](CC(C)C)NC(=O)[C@](C)(CC(C)C)NC(=O)[C@@H](NC(=O)C(C)(C)NC(=O)[C@@H](NC(=O)[C@H](CC(=O)O)NC(=O)[C@H](CO)NC(=O)[C@@H](NC(=O)[C@](C)(Cc1ccccc1F)NC(=O)[C@@H](NC(=O)CNC(=O)[C@H](CCC(=O)O)NC(=O)C(C)(C)NC(=O)[C@@H](N)Cc1ccc(O)cc1)[C@@H](C)O)[C@@H](C)O)C(C)C)[C@@H](C)CC)[C@@H](C)CC)C(=O)N[C@@H](CCC(=O)O)C(=O)NCC(=O)NCC(=O)N1CCC[C@H]1C(=O)N[C@@H](CO)C(=O)N[C@@H](CO)C(=O)NCC(=O)N[C@@H](C)C(=O)N1CCC[C@H]1C(=O)N1CCC[C@H]1C(=O)N1CCC[C@H]1C(=O)N[C@@H](CO)C(N)=O` [Example 386], for which the Emax stood at 81.3% at hGIPR (setting [1]); 95.7% at hGIPR (HEK293, cAMP, 37° C., 0.1% bovine casein, percent of maximal response to GIP(1-42)NH2, arithmetic mean, read-out: hGIPR Emax, % ± SEM); 96.8% at hGLP-1R (setting [5]); 98.9% on hGLP-1R (HEK293, cAMP, 0.1% bovine casein, percent of maximal response to GLP-1(7-36)NH2, arithmetic mean). For the same compound, the EC50 was 0.0174 nM at hGIPR (setting [2]); 2.08 nM on hGIPR (cAMP, 37° C., 0.1% bovine casein and 1.0% human serum albumin, geometric mean (SEM, n), read-out: hGIPR EC50, nM (SEM, n)); > 9950 nM on hGCGR (setting [3]); > 9950 nM at hGCGR (setting [4]); 0.194 nM on hGLP-1R (setting [6]).
On to `CC[C@H](C)[C@H](NC(=O)[C@H](CC(C)C)NC(=O)[C@](C)(Cc1ccc(O)cc1)NC(=O)[C@@H](CCC(=O)O)NC(=O)[C@@H](NC(=O)[C@H](Cc1ccccc1)NC(=O)[C@H](CCCCNC(=O)COCCOCCNC(=O)COCCOCCNC(=O)CC[C@H](NC(=O)CCCCCCCCCCCCC(=O)O)C(=O)O)NC(=O)C(C)(C)NC(=O)[C@H](CCC(N)=O)NC(=O)[C@H](C)NC(=O)[C@H](CCCCNC(=O)COCCOCCNC(=O)COCCOCCNC(=O)CC[C@H](NC(=O)CCCCCCCCCCCCC(=O)O)C(=O)O)NC(=O)[C@H](CCCN)NC(=O)[C@H](CC(=O)O)NC(=O)[C@H](CC(C)C)NC(=O)[C@](C)(CC(C)C)NC(=O)[C@@H](NC(=O)C(C)(C)NC(=O)[C@H](Cc1ccncc1)NC(=O)[C@H](CC(=O)O)NC(=O)[C@H](CO)NC(=O)[C@@H](NC(=O)[C@](C)(Cc1ccccc1F)NC(=O)[C@@H](NC(=O)CNC(=O)[C@H](CCC(=O)O)NC(=O)C(C)(C)NC(=O)[C@@H](N)Cc1ccc(O)cc1)[C@@H](C)O)[C@@H](C)O)[C@@H](C)CC)[C@@H](C)CC)C(=O)N[C@@H](CCC(=O)O)C(=O)NCC(=O)NCC(=O)N1CCC[C@H]1C(=O)N[C@@H](CO)C(=O)N[C@@H](CO)C(=O)NCC(=O)N[C@@H](C)C(=O)N1CCC[C@H]1C(=O)N1CCC[C@H]1C(=O)N1CCC[C@H]1C(=O)N[C@@H](CO)C(N)=O` [Example 357], for which the results for the maximum response (Emax) at hGIPR (setting [1]) and at hGLP-1R (setting [5]) were 78.2% and 92.8%, respectively. Moreover, the EC50 at hGIPR (setting [2]) is 0.011 nM; on hGCGR (setting [3]), > 10100 nM; on hGCGR (setting [4]), > 9950 nM; at hGLP-1R (setting [6]) it was 0.649 nM.
In the case of `CC[C@H](C)[C@H](NC(=O)[C@H](CCCN)NC(=O)[C@H](CC(=O)O)NC(=O)[C@H](CC(C)C)NC(=O)[C@](C)(CC(C)C)NC(=O)[C@@H](NC(=O)[C@](C)(CO)NC(=O)[C@@H](NC(=O)[C@H](CC(=O)O)NC(=O)[C@H](CO)NC(=O)[C@@H](NC(=O)[C@](C)(Cc1ccccc1F)NC(=O)[C@@H](NC(=O)CNC(=O)[C@H](CCC(=O)O)NC(=O)C(C)(C)NC(=O)[C@@H](N)Cc1ccc(O)cc1)[C@@H](C)O)[C@@H](C)O)C(C)C)[C@@H](C)CC)C(=O)N[C@@H](C)C(=O)N[C@@H](CCC(N)=O)C(=O)NC(C)(C)C(=O)N[C@@H](CCC(=O)O)C(=O)N[C@@H](Cc1ccccc1)C(=O)N[C@H](C(=O)N[C@@H](CCCCNC(=O)COCCOCCNC(=O)COCCOCCNC(=O)CC[C@H](NC(=O)CCCCCCCCCOc1ccc(C(=O)O)cc1)C(=O)O)C(=O)N[C@@](C)(Cc1ccc(O)cc1)C(=O)N[C@@H](CC(C)C)C(=O)N[C@H](C(=O)N[C@@H](CCCCNC(=O)COCCOCCNC(=O)COCCOCCNC(=O)CC[C@H](NC(=O)CCCCCCCCCOc1ccc(C(=O)O)cc1)C(=O)O)C(=O)NCC(=O)NCC(=O)N1CCC[C@H]1C(=O)N[C@@H](CO)C(=O)N[C@@H](CO)C(=O)NCC(=O)N[C@@H](C)C(=O)N1CCC[C@H]1C(=O)N1CCC[C@H]1C(=O)N1CCC[C@H]1C(=O)N[C@@H](CO)C(N)=O)[C@@H](C)CC)[C@@H](C)CC` [Example 309], the Emax on hGIPR (HEK293, read-out: hGIPR Emax, % ± SEM, 0.1% bovine casein and 1.0% human serum albumin, 37° C., percent of maximal response to GIP(1-42)NH2) stood at 95.3%. For the same compound, the EC50 at hGIPR (hGIPR EC50, nM (SEM, n), 0.1% bovine casein and 1.0% human serum albumin, 37° C., geometric mean) was 6.08 nM; on hGIPR (hGIPR EC50, nM (SEM, n), cAMP, 37° C., 0.1% bovine casein (no human serum albumin), geometric mean), 0.0212 nM; on hGCGR (hGCGR EC50, nM (SEM, n), 0.1% bovine casein and 1.0% human serum albumin, 37° C., geometric mean), > 9950 nM; on hGCGR (hGCGR EC50, nM (SEM, n), cAMP, 37° C., 0.1% bovine casein (no human serum albumin), geometric mean) it was > 9950 nM; on hGLP-1R (hGLP-1R EC50, nM (SEM, n)), 0.527 nM.
Turning to `CC[C@H](C)[C@H](NC(=O)[C@H](CC(C)C)NC(=O)[C@](C)(Cc1ccc(O)cc1)NC(=O)[C@@H](CCC(=O)O)NC(=O)[C@@H](NC(=O)[C@H](Cc1ccccc1)NC(=O)[C@H](CCC(=O)O)NC(=O)C(C)(C)NC(=O)[C@H](CCC(N)=O)NC(=O)[C@H](C)NC(=O)[C@H](CCCCNC(=O)COCCOCCNC(=O)COCCOCCNC(=O)CC[C@H](NC(=O)CCCCCCCCCCCCC(=O)O)C(=O)O)NC(=O)[C@H](CCCN)NC(=O)[C@H](CC(=O)O)NC(=O)[C@H](CC(C)C)NC(=O)[C@](C)(CC(C)C)NC(=O)[C@@H](NC(=O)C1(NC(=O)[C@H](Cc2ccncc2)NC(=O)[C@H](CC(=O)O)NC(=O)[C@H](CO)NC(=O)[C@@H](NC(=O)[C@](C)(Cc2ccccc2F)NC(=O)[C@@H](NC(=O)CNC(=O)[C@H](CCC(=O)O)NC(=O)C(C)(C)NC(=O)[C@@H](N)Cc2ccc(O)cc2)[C@@H](C)O)[C@@H](C)O)CCCC1)[C@@H](C)CC)[C@@H](C)CC)C(=O)N[C@@H](CCC(=O)O)C(=O)NCC(=O)NCC(=O)N[C@@H](CCCCNC(=O)COCCOCCNC(=O)COCCOCCNC(=O)CC[C@H](NC(=O)CCCCCCCCCCCCC(=O)O)C(=O)O)C(=O)N[C@@H](CO)C(=O)N[C@@H](CO)C(=O)NCC(=O)N[C@@H](C)C(=O)N1CCC[C@H]1C(=O)N1CCC[C@H]1C(=O)N1CCC[C@H]1C(=O)N[C@@H](CO)C(N)=O` [Example 211], the EC50 at hGIPR (0.1% bovine casein and 1.0% human serum albumin, 37° C., geometric mean, read-out: hGIPR EC50, nM (SEM, n)) is 2.16 nM; at hGCGR (0.1% bovine casein and 1.0% human serum albumin, 37° C., geometric mean, read-out: hGCGR EC50, nM (SEM, n)), > 9950 nM; at hGCGR (cAMP, incubated at 37° C., 0.1% bovine casein (no human serum albumin), geometric mean, read-out: hGCGR EC50, nM (SEM, n)), > 9950 nM. The maximal effect (Emax) at hGIPR (HEK293, 0.1% bovine casein and 1.0% human serum albumin, 37° C., percent of maximal response to GIP(1-42)NH2, read-out: hGIPR Emax, % ± SEM) stood at 64.5%; at hGIPR (HEK293, percent of maximal response to GIP(1-42)NH2, 37° C., 0.1% bovine casein, arithmetic mean, read-out: hGIPR Emax, % ± SEM) it was 91.6%; at hGLP-1R (HEK293, 0.1% bovine casein and 1.0% human serum albumin, percent of maximal response to GLP-1(7-36)NH2) it was 99%; on hGLP-1R (HEK293, percent of maximal response to GLP-1(7-36)NH2, 0.1% bovine casein, arithmetic mean), 93.1%.
